Where two headings read alike, the source gives them in different places.
Key:
EthR protein = EthR protein (Mycobacterium tuberculosis, UniProt P9WMC1); experiment: TSA test (Thermal Shift Assay), fluorescence with Sypro Orange; type: binding, M. tuberculosis; conditions: melting temperature shift of EthR with ligand vs protein alone
[1] = system: M. tuberculosis alone or macrophages infected by M. tuberculosis; experiment: Potentiation of ethionamide cell test (High Content Screening); type: cell-based; conditions: ligand concentration potentiating ten times the activity of ethionamide, ethionamide constant at 0.1 μg/mL (1/10th of its CMI99)

EthR protein, sequence (P9WMC1 whole entry, looked up): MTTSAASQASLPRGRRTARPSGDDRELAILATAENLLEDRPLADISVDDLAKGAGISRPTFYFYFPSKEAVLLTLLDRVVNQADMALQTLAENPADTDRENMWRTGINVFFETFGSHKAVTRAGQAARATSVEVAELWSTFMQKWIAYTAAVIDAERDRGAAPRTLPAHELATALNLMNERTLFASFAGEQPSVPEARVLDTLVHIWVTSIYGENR

Structure (SMILES) | ΔTm (EthR protein) [°C] | EC50 ([1]; read-out: EC50) [µM] | EC50 [1] [µM]
CC(C)CCc1cn(-c2ccc(C(=O)NCCC(F)(F)F)cc2)nn1 [Compound 93, 4-(4-isopentyl-1H-1,2,3-triazol-1-yl)-N-(3,3,3-trifluoropropyl)benzamide] | 3.8 | > 10 | 
CCCS(=O)(=O)NCc1nc(-c2ccc(C(=O)NCCC(F)(F)F)cc2)cs1 [Compound 103, 4-(2-(propylsulfonamidomethyl)thiazol-4-yl)-N-(3,3,3-trifluoropropyl)benzamide] | 6.6 | 0.32 | 
Cc1nnc(-c2ccc(C(=O)NCCC(F)(F)F)cc2)s1 [Compound 83, 4-(5-methyl-1,3,4-thiadiazol-2-yl)-N-(3,3,3-trifluoropropyl)benzamide] |  | 1.4 | 
O=C(NCCC(F)(F)F)c1ccc(-n2cc(C3CC3)nn2)cc1 [Compound 95, 4-(4-cyclopropyl-1H-1,2,3-triazol-1-yl)-N-(3,3,3-trifluoropropyl)-benzamide] | 3.5 | 1.7 | 
Cc1nc(-c2ccc(C(=O)NCCC(F)(F)F)cc2)no1 [Compound 75, 4-(5-methyl-1,2,4-oxadiazol-3-yl)-N-(3,3,3-trifluoropropyl)benzamide] |  | 0.062 | 
O=C(NCCC(F)(F)F)c1ccc(-n2cc(CCO)nn2)cc1 [Compound 97, 4-(4-(2-hydroxyethyl)-1H-1,2,3-triazol-1-yl)-N-(3,3,3-trifluoropropyl)-benzamide] | 1.2 | 2 | 
Cc1nc(-c2ccc(S(=O)(=O)NCC(F)(F)C(F)(F)F)cc2)cs1 [Compound 25, 4-(2-methylthiazol-4-yl)-N-(2,2,3,3,3-pentafluoropropyl)benzene sulfonamide] | 8.6 | > 20 | 
Cc1nc(-c2ccc(S(=O)(=O)NCCC(C)(C)C)cc2)cs1 [Compound 23, N-(3,3-dimethylbutyl)-4-(2-methylthiazol-4-yl)benzene sulfonamide] | 2.3 | > 20 | 
CS(=O)(=O)NCC#Cc1ccc(S(=O)(=O)NCCC(F)(F)F)cc1 [Compound 108, 4-(3-(methylsulfonamido)prop-1-ynyl)-N-(3,3,3-trifluoropropyl)-benzene sulfonamide] | 1.4 | > 10 | 
Cc1nc(-c2ccc(S(=O)(=O)NCCCC(F)(F)F)cc2)cs1 [Compound 27, 4-(2-methylthiazol-4-yl)-N-(4,4,4-trifluorobutyl)benzene sulfonamide] | 6.6 | > 2.5 | 
CCOC(=O)c1nc(-c2ccc(C(=O)NCCC(F)(F)F)cc2)cs1 [Compound 54, 4-(4-(3,3,3-trifluoropropylcarbamoyl)phenyl)thiazole-2-ethyl carboxylate] | 9.6 | > 2.5 | 
Cc1nc(-c2ccc(C(=O)NCCC(F)(F)F)cn2)cs1 [Compound 71, 6-(2-methylthiazol-4-yl)-N-(3,3,3-trifluoropropyl)nicotinamide] |  | 1.7 | 
Cc1nnc(-c2ccc(C(=O)NCCC(F)(F)F)cc2)o1 [Compound 80, 4-(5-methyl-1,3,4-oxadiazol-2-yl)-N-(3,3,3-trifluoropropyl)benzamide] |  | 0.96 | 
Cc1noc(-c2ccc(C(=O)NCCC(F)(F)F)cc2)n1 [Compound 78, 4-(3-methyl-1,2,4-oxadiazol-5-yl)-N-(3,3,3-trifluoropropyl)benzamide] |  | 0.21 | 
Cc1nc(-c2ccc(C(=O)NCCC(F)(F)F)nc2)cs1 [Compound 67, 5-(2-methylthiazol-4-yl)-N-(3,3,3-trifluoropropyl)picolinamide] |  | 0.12 | 
Cc1nc(-c2ccc(S(=O)(=O)NCC(F)(F)F)cc2)cs1 [Compound 26, 4-(2-methylthiazol-4-yl)-N-(2,2,2-trifluoroethyl)benzene sulfonamide] | 6.3 | 7.9 | 
CC(C)(C)S(=O)(=O)Cc1nc(-c2ccc(C(=O)NCCC(F)(F)F)cc2)cs1 [Compound 50, 4-(2-(tert-butylsulfonylmethyl)thiazol-4-yl)-N-(3,3,3-trifluoropropyl)-benzamide] | 9.6 | 0.041 | 
O=C(NCCC(F)(F)F)c1ccc(-c2nsc(CO)n2)cc1 [Compound 90, 4-(5-(hydroxymethyl)-1,2,4-thiadiazol-3-yl)-N-(3,3,3-trifluoropropyl)-benzamide] |  | 0.13 | 
[N-]=[N+]=Nc1ccc(C(=O)NCCC(F)(F)F)cc1 [Compound 92, 4-azido-N-(3,3,3-trifluoropropyl)benzamide] | 6.0 | 1.1 | 
CC(C)OC(=O)c1nc(-c2ccc(C(=O)NCCC(F)(F)F)cc2)cs1 [Compound 55, 4-(4-(3,3,3-trifluoropropylcarbamoyl)phenyl)thiazole-2-isopropyl carboxylate] | 8.2 | 0.73 | 

Structure (SMILES) | ΔTm (EthR protein) [°C] | EC50 ([1]; read-out: EC50) [µM] | EC50 [1] [µM]
CC(C)(C)S(=O)(=O)Cc1nc(-c2ccc(S(=O)(=O)NCCC(F)(F)F)cc2)cs1 [Compound 39, 4-(2-(tert-butylsulfonylmethyl)thiazol-4-yl)-N-(3,3,3-trifluoropropyl)-benzene sulfonamide] | 7.3 | 0.2 | 
CC(C)NC(=O)Cc1nc(-c2ccc(S(=O)(=O)NCCC(F)(F)F)cc2)cs1 [Compound 36, N-isopropyl-2-(4-(4-(N-(3,3,3-trifluoropropyl)sulfamoyl)phenyl)thiazol-2-yl)acetamide] |  | 0.21 | 
CC(C)CCNS(=O)(=O)c1ccc(-c2csc(CC#N)n2)cc1 [Compound 17, 4-(2-(cyanomethyl)thiazol-4-yl)-N-isopentyl benzene sulfonamide] | 5.3 | 7.9 | 
CC(C)CCNS(=O)(=O)c1ccc(-c2csc(CC(N)=O)n2)cc1 [Compound 21, 2-(4-(4-(N-isopentylsulfamoyl)phenyl)thiazol-2-yl)acetamide] | 4.6 | 5 | 
O=C(NCCC(F)(F)F)c1ccc(C#CCNS(=O)(=O)c2ccccc2)cc1 [Compound 112, 4-(3-(phenylsulfonamido)prop-1-ynyl)-N-(3,3,3-trifluoropropyl)-benzamide] | 4.2 | 0.23 | 
Cc1csc(-c2ccc(S(=O)(=O)NCCC(F)(F)F)cc2)n1 [Compound 41, 4-(4-methylthiazol-2-yl)-N-(3,3,3-trifluoropropyl)benzene sulfonamide] | 6.8 | 0.66 | 
Cc1nc(-c2ccc(S(=O)(=O)NCC(F)(F)C(F)(F)C(F)(F)F)cc2)cs1 [Compound 28, N-(2,2,3,3,4,4,4-heptafluorobutyl)-4-(2-methylthiazol-4-yl)benzene sulfonamide] | 7.3 |  | > 2.5
O=C(NCCC(F)(F)F)c1ccc(-c2cscn2)cc1 [Compound 56, 4-(thiazol-4-yl)-N-(3,3,3-trifluoropropyl)benzamide] | 8.1 | 0.36 | 
COC(=O)Cc1nc(-c2ccc(S(=O)(=O)NCCC(F)(F)F)cc2)cs1 [Compound 33, 2-(4-(4-(N-(3,3,3-trifluoropropyl)sulfamoyl)phenyl)thiazol-2-yl)methyl acetate] | 9.5 | 0.86 | 
O=S(=O)(NCC#Cc1ccc(S(=O)(=O)NCCC(F)(F)F)cc1)c1ccccc1 [Compound 106, 4-(3-(phenylsulfonamido)prop-1-ynyl)-N-(3,3,3-trifluoropropyl)-benzene sulfonamide] | 3.3 | 1.8 | 
CCOC(=O)Cc1nc(-c2ccc(C(=O)NCCC(F)(F)F)cc2)cs1 [Compound 52] | 10.1 | 0.19 | 
Cc1nc(-c2ccc(C(=O)NCCC(F)(F)F)cc2)c(Cl)s1 [Compound 64, 4-(5-chloro-2-methylthiazol-4-yl)-N-(3,3,3-trifluoropropyl)benzamide] | 8.7 | 0.35 | 
Cc1nc(-c2ccc(C(=O)NCCC(F)(F)F)cc2)co1 [Compound 72, 4-(2-methyloxazol-4-yl)-N-(3,3,3-trifluoropropyl)benzamide] |  | 0.18 | 
O=S(=O)(NCCC(F)(F)F)c1ccc(-c2nc3ccccc3s2)cc1 [Compound 42, 4-(benzo[d]thiazol-2-yl)-N-(3,3,3-trifluoropropyl)benzene sulfonamide] |  | 0.3 | 
CC(C)Cc1cn(-c2ccc(C(=O)NCCC(F)(F)F)cc2)nn1 [Compound 94, 4-(4-isobutyl-1H-1,2,3-triazol-1-yl)-N-(3,3,3-trifluoropropyl)benzamide] | 4.1 | 1.2 | 
O=C(NCCC(F)(F)F)c1ccc(-c2csc(CNS(=O)(=O)c3ccccc3)n2)cc1 [Compound 104, 4-(2-(phenylsulfonamidomethyl)thiazol-4-yl)-N-(3,3,3-trifluoro-propyl)benzamide] | 1.2 | 0.15 | 
Cc1nc(-c2ccc(C(=O)NCCC(F)(F)F)cc2)c(F)s1 [Compound 62, 4-(5-fluoro-2-mthylthiazol-4-yl)-N-(3,3,3-trifluoropropyl)benzamide] |  | 0.055 | 
CC(C)OC(=O)Cc1nc(-c2ccc(C(=O)NCCC(F)(F)F)cc2)cs1 [Compound 53, 2-(4-(4-(3,3,3-trifluoropropylcarbamoyl)phenyl)thiazol-2-yl(isopropyl acetate] | 13.2 | 0.33 | 
CC(C)CCCc1nc(-c2ccc(C(=O)NCCC(F)(F)F)cc2)cs1 [Compound 47, 4-(2-(4-methylpentyl)thiazol-4-yl)-N-(3,3,3-trifluoropropyl)benzamide] | 13.0 | 0.03 | 
CCOC(=O)Cc1nc(-c2ccc(S(=O)(=O)NCCC(F)(F)F)cc2)cs1 [Compound 34] | 0.15 | 0.15 | 
